Source: PubChem BioAssay AID256 (DTP/NCI, 2004)
Where “and” joins values, the source holds several entries; their conditions need not be identical. Equal entries are not always repeated. Toxic doses and inconclusive results are not listed.

System: CD2F1 mice, L1210 leukemia ip, survival T/C
Assay: NCI In Vivo Anticancer Drug Screen. Data for tumor model L1210 Leukemia (intraperitoneal) in CD2F1 (CDF1) mice
Conditions: endpoint: mean survival time, higher = longer survival
Summary of the method: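 Ratio T/C, where T is the treated-group value and C the vehicle-dosed control value, from mice implanted with a transplantable tumor.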

[1] = dose: 12.5 mg/kg/injection, schedule: Q04DX003 (ip), vehicle: saline

For `O=c1[nH]c(=O)n(C2CC(O)C(CO)O2)cc1Br` (configuration not stated), the T/C (dose: 25.0 mg/kg/injection, schedule: Q01DX009 (ip), vehicle: Klucel (hydroxypropylcellulose) (HPC)) was 103 % of control, the T/C (dose: 50.0 mg/kg/injection, schedule: Q01DX009 (ip), vehicle: Klucel (hydroxypropylcellulose) (HPC)) was 123 % of control and the T/C (dose: 100.0 mg/kg/injection, schedule: Q01DX009 (ip), vehicle: Klucel (hydroxypropylcellulose) (HPC)) was 120 % of control. For the same molecule, the T/C (dose: 200.0 mg/kg/injection, schedule: Q01DX009 (ip), vehicle: Klucel (hydroxypropylcellulose) (HPC)) was 112 % of control, the T/C (dose: 400.0 mg/kg/injection, schedule: Q01DX009 (ip), vehicle: Klucel (hydroxypropylcellulose) (HPC)) was 112 % of control and the T/C (dose: 800.0 mg/kg/injection, schedule: Q01DX009 (ip), vehicle: Klucel (hydroxypropylcellulose) (HPC)) was 115 % of control.

For `COc1ccc(Cn2cnc3c(=S)nc[nH]c32)cc1`, the T/C (dose: 100.0 mg/kg/injection, schedule: Q01DX001 (ip), vehicle: Klucel (hydroxypropylcellulose) (HPC)) was 91 % of control, the T/C (dose: 200.0 mg/kg/injection, schedule: Q01DX001 (ip), vehicle: Klucel (hydroxypropylcellulose) (HPC)) was 100 % of control and the T/C (dose: 400.0 mg/kg/injection, schedule: Q01DX001 (ip), vehicle: Klucel (hydroxypropylcellulose) (HPC)) was 94 % of control.

With `CS(=O)(=O)OCCNC(=O)N(CCCl)N=O` the T/C (dose: 0.39 mg/kg/injection, schedule: Q01DX009 (ip), vehicle: water) was 95 % of control, the T/C (dose: 0.78 mg/kg/injection, schedule: Q01DX009 (ip), vehicle: water) was 108 % of control and the T/C (dose: 3.13 mg/kg/injection, schedule: Q01DX009 (ip), vehicle: water) was 193 % of control. The T/C (dose: 5.0 mg/kg/injection, schedule: Q01DX001 (ip), vehicle: distilled water + Tween-80) was 120 % of control, the T/C (dose: 6.25 mg/kg/injection, schedule: Q01DX009 (ip), vehicle: water) was 356 % of control and the T/C (dose: 20.0 mg/kg/injection, schedule: Q01DX001 (ip), vehicle: distilled water + Tween-80) was 216 % of control and 342 % of control. For the same molecule, the T/C (dose: 40.0 mg/kg/injection, schedule: Q01DX001 (ip), vehicle: distilled water + Tween-80) was 311 % of control and 500 % of control.

For `O=c1[nH]c(=O)n(C(c2ccccc2)(c2ccccc2)c2ccccc2)cc1N(CCO)CCO`, the T/C (dose: 50.0 mg/kg/injection, schedule: Q01DX001 (ip), vehicle: saline) was 91 % of control, the T/C (dose: 100.0 mg/kg/injection, schedule: Q01DX001 (ip), vehicle: saline) was 100 % of control and the T/C (dose: 200.0 mg/kg/injection, schedule: Q01DX001 (ip), vehicle: saline) was 87 % of control. For the same molecule, the T/C (dose: 400.0 mg/kg/injection, schedule: Q01DX001 (ip), vehicle: saline) was 91 % of control.

With `CCN1C=C/C(=C/c2cc3scc(-c4ccccc4)[n+]3c3ccccc23)c2ccccc21` the T/C (dose: 0.01 mg/kg/injection, schedule: Q01DX009 (ip), vehicle: saline) was 97 % of control, the T/C (dose: 0.02 mg/kg/injection, schedule: Q01DX009 (ip), vehicle: saline) was 100 % of control and the T/C (dose: 0.04 mg/kg/injection, schedule: Q01DX009 (ip), vehicle: saline) was 103 % of control.

For `Cc1ccc(C2=C(O)C(=O)C(c3ccc(C)cc3)=C(O)C2=O)cc1`, the T/C (dose: 75.0 mg/kg/injection, schedule: Q01DX001 (ip), vehicle: other) was 105 % of control and the T/C (dose: 150.0 mg/kg/injection, schedule: Q01DX001 (ip), vehicle: other) was 102 % of control.

For `[Cl][Pt+2][Cl].[NH-]CCO.[NH-]CCO`, the T/C [1] was 102 % of control and the T/C (dose: 50.0 mg/kg/injection, schedule: Q04DX003 (ip), vehicle: saline) was 118 % of control.

For `CCOC(=O)C(C(C)=O)c1cc(NS(=O)(=O)c2ccccc2)ccc1O` (configuration not stated), the T/C (dose: 100.0 mg/kg/injection, schedule: Q04DX003 (ip), vehicle: saline with Tween-80) was 114 % of control, the T/C (dose: 200.0 mg/kg/injection, schedule: Q04DX003 (ip), vehicle: saline with Tween-80) was 103 % of control and the T/C (dose: 400.0 mg/kg/injection, schedule: Q04DX003 (ip), vehicle: saline with Tween-80) was 105 % of control.

In the case of `COc1ccc(NC(=O)Oc2ccccc2-c2ccccc2)cc1`, the T/C (dose: 100.0 mg/kg/injection, schedule: Q01DX009 (ip), vehicle: saline with Tween-80) is reported as 98 % of control, the T/C (dose: 200.0 mg/kg/injection, schedule: Q01DX009 (ip), vehicle: saline with Tween-80) is reported as 89 % of control and the T/C (dose: 400.0 mg/kg/injection, schedule: Q01DX009 (ip), vehicle: saline with Tween-80) is reported as 89 % of control.

With `CCCC(=O)Nc1cc2c3c(c1)CCCN3CCC2` the T/C (dose: 6.25 mg/kg/injection, schedule: Q01DX009 (ip), vehicle: saline with Tween-80) was 97 % of control, the T/C (dose: 12.5 mg/kg/injection, schedule: Q01DX009 (ip), vehicle: saline with Tween-80) was 97 % of control and the T/C (dose: 25.0 mg/kg/injection, schedule: Q01DX009 (ip), vehicle: saline with Tween-80) was 98 % of control.

With `CC1CC(C)(C)NC1=O` (configuration not stated) the T/C (dose: 6.25 mg/kg/injection, schedule: Q04DX003 (ip), vehicle: saline) was 103 % of control, the T/C [1] was 104 % of control and the T/C (dose: 25.0 mg/kg/injection, schedule: Q04DX003 (ip), vehicle: saline) was 95 % of control.

With `Nc1nc(-c2cccc([N+](=O)[O-])c2)c(N=Nc2ccc(Br)cc2)s1` the T/C (dose: 100.0 mg/kg/injection, schedule: Q01DX001 (ip), vehicle: saline with Tween-80) was 96 % of control, the T/C (dose: 200.0 mg/kg/injection, schedule: Q01DX001 (ip), vehicle: saline with Tween-80) was 87 % of control and the T/C (dose: 400.0 mg/kg/injection, schedule: Q01DX001 (ip), vehicle: saline with Tween-80) was 90 % of control.
